Experimental findings from patent publication US20240016784A1, “Y BOX BINDING PROTEIN 1 INHIBITORS” (Oregon Health & Science University, priority 2020, published 2024) are described below.

Experiment [1] deals with YB-1, TMSB10, SUMO2 and PMSB2 proteins. The experiment can be described thus: Western blot of CETSA targets in OVCAR8 cells. It counts as cell-based, human. The note with it: 1, 2.5 and 5 μM for 12 h. The protocol: Out of six targets identified, we selected proteins whose thermal shift is above 5° in the presence of SU056 for further study of protein expression after treatment. […] To study the in vivo effects of SU056 treatment, we analyzed ID8 tumor xenograft samples via immunohistochemistry (IHC). […] To identify the broader effects of SU056 on YB-1 and its downstream protein/activity in different ovarian cancer cell lines, we selected six different cell lines and treated them with SU056 (2.5 μM) for 12 h. Cells were analyzed for YB-1 and CD44 expression and Multidrug resistance 1 (MDR1, ABC pump mediated efflux). […] OVCAR4, OVCAR8, and SKOV3 cells were treated with SU056 (1, 2.5, and 5 μM) for 3, 6, 12, and 24 h and YB-1 expression was measured using YB-1 ELISA. […]
Immunoblotting: Once 70% confluency of OC cells plated in 100 mm cell culture was obtained, dishes were treated with a respective concentration of SU056 for a respective time. […] Proteins were detected using Immobilon® Crescendo Western HRP Substrate (Millipore, Germany) and visualized on an IVIS Lumina Imaging System (Perkin Elmer, Waltham, MA).
FIGS. 4A-4E: SU056 inhibits YB-1. […] FIG. 4C) Respective OC cells were treated with 2.5 μM SU056 for 12 h and YB-1 & CD44 expression and multidrug resistance activity was measured as described in the ‘method’ section. […]
A general note: Immunoblotting shows a protein as a band on a membrane.

The test system of experiment [2] is protein translation associated molecules. Description: Western blot of translation associated molecules in TNBC cells. It counts as cell-based. Particulars: 12 and 24 hr; MDA-MB-231, MDA-MB-468, SUM 159. The protocol: FIGS. 12A-12C. TNBC cells were treated for 12 and 24 hr and total cell lysate were prepared. SDS-PAGE and western blot analyses were performed for translation associated molecules. Beta-actin were probed to ensure equal protein loading.

Experiment [3] concerns MDA-MB-231, MDA-MB-468 and SUT1151-PDX xenografts. The experiment can be described thus: Tumor xenografts of TNBC models. It is filed as in vivo, Mice. Particulars: SU056 50 mg/kg, oral gavage. The protocol: FIGS. 13A-13I. […] Mice were subcutaneously injected with MDA-MB-231 (2×10^6 cells), MDA-MB-468 (5×10^6 cells) and patient derived xenograft SUT1151-PDX (2×10^6 cells) and drug treatment started when tumor reached 100 mm^3. Mice were given either vehicle (40% PEG in saline) or SU056 (50 mg/kg) through oral route using oral gavage. FIG. 13A) Tumor volume (MDA-MB-231) as a function of time. FIG. 13B) Tumor weight (MDA-MB-231) at the end of the study. FIG. 13C) Body weight (MDA-MB-231) as a function of time. FIG. 13D) Tumor volume (MDA-MB-468) as a function of time. FIG. 13E) Tumor weight (MDA-MB-468) at the end of the study. FIG. 13F) Body weight (MDA-MB-468) as a function of time. FIG. 13G) Representative images of tumor (MDA-MB-231) at the end of study. FIG. 13H) Representative images of tumor (MDA-MB-468) at the end of study. FIG. 13I) Tumor volume (SUT1151-PDX) as a function of time. FIG. 13B) Tumor weight (SUT1151-PDX) at the end of the study. FIG. 13C) Body weight (SUT1151-PDX) as a function of time.

The subject of another experiment is A549/ATCC. Description: NCI-60 cell line panel. It counts as cell-based. The note with it: Homo sapiens, 48 hours. The source says:
(§1) FIG. 17: Assay of SU056 in NCI-60 cell line panel.

For a further experiment, the system named is CCRF-CEM. The experiment can be described thus: NCI-60 cell line panel. It is filed as cell-based. The note with it: Homo sapiens, 48 hours.
Source text: as §1

The next experiment has as its system HOP-62. Description: NCI-60 cell line panel. It is filed as cell-based. The note with it: Homo sapiens, 48 hours.
Source text: as §1

In another experiment the test system is HOP-92. Description: NCI-60 cell line panel. It is filed as cell-based. Particulars: Homo sapiens, 48 hours.
Source text: as §1

The next experiment concerns KM12. Description: NCI-60 cell line panel. It counts as cell-based. Particulars: Homo sapiens, 48 hours.
Source text: as §1

Another experiment relates to OVCAR-3. The experiment can be described thus: NCI-60 cell line panel. It is filed as cell-based. Particulars: Homo sapiens, 48 hours.
Source text: as §1

The subject of a further experiment is PC-3. Description: NCI-60 cell line panel. Particulars: Homo sapiens, 48 hours. It counts as cell-based.
Source text: as §1

The next experiment relates to RXF 393. Description: NCI-60 cell line panel. It counts as cell-based. Particulars: Homo sapiens, 48 hours.
Source text: as §1

In a further experiment the test system is SF-295. The experiment can be described thus: NCI-60 cell line panel. It counts as cell-based. Particulars: Homo sapiens, 48 hours.
Source text: as §1

The test system of a further experiment is SK-MEL-5. The experiment can be described thus: NCI-60 cell line panel. Particulars: Homo sapiens, 48 hours. It is filed as cell-based.
Source text: as §1

Another experiment deals with SNB-75. Description: NCI-60 cell line panel. It counts as cell-based. The note with it: Homo sapiens, 48 hours.
Source text: as §1

The next experiment deals with SR. The experiment can be described thus: NCI-60 cell line panel. It is filed as cell-based. Particulars: Homo sapiens, 48 hours.
Source text: as §1

The test system of another experiment is SW-620. Description: NCI-60 cell line panel. It counts as cell-based. Particulars: Homo sapiens, 48 hours.
Source text: as §1

For a further experiment, the system named is UACC-257. The experiment can be described thus: NCI-60 cell line panel. It is filed as cell-based. The note with it: Homo sapiens, 48 hours.
Source text: as §1

With `O=C1OCC2=C1C(c1cccc(F)c1)c1cc3c(cc1N2CCO)OCO3` (centres unmarked) [SU056, 9-(3-fluorophenyl)-5-(2-hydroxyethyl)-6,9-dihydro-[1,3]dioxolo[4,5-g]furo[3,4-b]quinolin-8(5H)-one], the “protein expression by Western blot” value in [1] was “inhibits the YB-1, TMSB10, SUMO2 and PMSB2 proteins in a dose-dependent manner”. Further, the “protein translation associated molecules (western blot)” value in [2] was “inhibited the protein translation associated molecules”. In addition, the “tumor xenograft growth, TNBC models” value in experiment [3] is recorded as “inhibit tumor xenograft of TNBC models”. Also, the half-maximal inhibitory concentration (IC50) (as a rule, the midpoint of a concentration-inhibition curve) in the experiment on A549/ATCC is 8.74 µM; in the experiment with CCRF-CEM, 2.37 µM; with HOP-62 it was 2.19 µM; with HOP-92, 3.1 µM; with KM12, 1.48 µM; in the experiment on OVCAR-3 it was 1.27 µM. The concentration for half-maximal inhibition (IC50) in the experiment with PC-3 stood at 1.46 µM; in the experiment with RXF 393, 1.51 µM; in the experiment with SF-295, 1.2 µM; in the experiment on SK-MEL-5, 1.26 µM; in the experiment on SNB-75, 0.82 µM; with SR, 0.294 µM. The IC50 with SW-620 was 1.65 µM; with UACC-257, 50 µM.
